Results: ChEMBL document CHEMBL1201862, “PubChem BioAssay data set” (2004)
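Values below derive from 48-hour exposures of cells grown in 96-well plates, with endpoints linearly interpolated between the two concentrations bracketing the appropriate inhibition level. The concentration for 50% growth inhibition is given as GI50.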 Active and inactive are the calls of the source. Rule as the data show it: active = GI50 up to about 1.1 µM and inactive = higher.

Assays:
Test in all cases: growth of human tumour cells (NCI), 48 h
[1] = tested on: SK-MEL-28
[2] = tested on: CAKI-1
[3] = tested on: HT-29
[4] = tested on: NCI/ADR-RES
[5] = tested on: SW-620
[6] = tested on: NCI-H23
[7] = tested on: UO-31
[8] = tested on: SF-539
[9] = tested on: Hs-578T
[10] = tested on: ACHN
[11] = tested on: NCI-H522
[12] = tested on: HL-60
[13] = tested on: SK-OV-3
[14] = tested on: 786-0
[15] = tested on: PC-3
[16] = tested on: A549
[17] = tested on: SK-MEL-2
[18] = tested on: HOP-62
[19] = tested on: DU-145
[20] = tested on: M19-MEL

SMILES	GI50 [1]	GI50 [2]	GI50 [3]	GI50 [4]	GI50 [5]	GI50 [6]	GI50 [7]	GI50 [8]	GI50 [9]	GI50 [10]	GI50 [11]	GI50 [12]	GI50 [13]	GI50 [14]	GI50 [15]	GI50 [16]	GI50 [17]	GI50 [18]	GI50 [19]	GI50 [20]
Nc1ccc2c3[nH]c4cc(N)ccc4cc-3nc2c1	0.0746 µM (active)	0.203 µM (active)	0.145 µM (active)	0.243 µM (active)	0.0603 µM (active)	0.202 µM (active)	0.0925 µM (active)	0.231 µM (active)	0.11 µM (active)	0.0236 µM (active)	22.6 µM (inactive)	0.273 µM (active)	0.314 µM (active)	0.121 µM (active)	0.224 µM (active)	0.286 µM (active)	0.413 µM (active)	0.117 µM (active)	0.318 µM (active)	
CSc1ncnc2c1ncn2CC(=O)C1CCC2C3CCC4=CC(=O)CCC4(C)C3CCC12C (stereo unspecified)	5.47 µM (inactive)	10 µM (inactive)	3.76 µM (inactive)	2.5 µM (inactive)	9.16 µM (inactive)	3.79 µM (inactive)	0.757 µM (active)	8.41 µM (inactive)	19.1 µM (inactive)	4.97 µM (inactive)	3.61 µM (inactive)	0.28 µM (active)	16.3 µM (inactive)	11 µM (inactive)	2.57 µM (inactive)	6.81 µM (inactive)	2.98 µM (inactive)	2.42 µM (inactive)	13.9 µM (inactive)	
CCCCCCN(CCCCCC)CCC(=O)c1ccc2cc(Br)c3ccccc3c2c1	77.1 µM (inactive)	66.7 µM (inactive)	66.1 µM (inactive)	48.5 µM (inactive)	43.7 µM (inactive)	81.8 µM (inactive)	26.7 µM (inactive)	21.3 µM (inactive)	33.3 µM (inactive)	54.1 µM (inactive)	25.5 µM (inactive)	10.8 µM (inactive)	39.1 µM (inactive)	24.9 µM (inactive)	31.3 µM (inactive)	> 100 µM (inactive)	27.3 µM (inactive)	40.4 µM (inactive)	52.2 µM (inactive)	
CC1=C(/C=C/C(C)=C/C=C/C(C)=C/C(=O)OC2CC(n3cc(F)c(=O)[nH]c3=O)OC2CO)C(C)(C)CCC1 (stereo unspecified)	7.73 µM (inactive)	0.383 µM (active)	2.71 µM (inactive)	2.05 µM (inactive)	10.6 µM (inactive)	2.75 µM (inactive)	0.431 µM (active)	0.0577 µM (active)	6.62 µM (inactive)	0.082 µM (active)	1.17 µM (inactive)	0.628 µM (active)	2.05 µM (inactive)	0.52 µM (active)	1.99 µM (inactive)	0.153 µM (active)	24.9 µM (inactive)	0.158 µM (active)	0.476 µM (active)	
CCOc1ccc(/N=N/S(=O)(=O)O)cc1	> 100 µM (inactive)	> 100 µM (inactive)	> 100 µM (inactive)	> 100 µM (inactive)	> 100 µM (inactive)	> 100 µM (inactive)	> 100 µM (inactive)	> 100 µM (inactive)	> 100 µM (inactive)	> 100 µM (inactive)	> 100 µM (inactive)	> 100 µM (inactive)	> 100 µM (inactive)	> 100 µM (inactive)	> 100 µM (inactive)	> 100 µM (inactive)	> 100 µM (inactive)	> 100 µM (inactive)	> 100 µM (inactive)	
O=C1NC(c2ccccc2Cl)Nc2ccccc21 (stereo unspecified)	24.1 µM (inactive)	5.71 µM (inactive)	6.67 µM (inactive)	5.61 µM (inactive)	3.09 µM (inactive)	34.2 µM (inactive)	30.7 µM (inactive)	7.08 µM (inactive)	9.53 µM (inactive)	29.5 µM (inactive)	12.3 µM (inactive)	2.91 µM (inactive)	31 µM (inactive)	28.4 µM (inactive)	21.4 µM (inactive)	32.5 µM (inactive)	6.7 µM (inactive)	35.4 µM (inactive)	30.8 µM (inactive)	
CC(=O)OCC1OC(n2nc(Cc3ccccc3)c(=S)[nH]c2=S)C(OC(C)=O)C(OC(C)=O)C1OC(C)=O (stereo unspecified)	42.8 µM (inactive)	30.7 µM (inactive)	41.8 µM (inactive)	> 100 µM (inactive)	30 µM (inactive)	20.3 µM (inactive)	4.9 µM (inactive)	24.9 µM (inactive)	20.2 µM (inactive)	> 100 µM (inactive)	21.4 µM (inactive)	0.583 µM (active)	50.7 µM (inactive)	35.2 µM (inactive)	41.1 µM (inactive)	84.1 µM (inactive)	17.7 µM (inactive)	22 µM (inactive)	25.4 µM (inactive)	
COc1cccc2cc(C(=O)Nc3ccccn3)c(=N)oc12	> 100 µM (inactive)	> 100 µM (inactive)	> 100 µM (inactive)	> 100 µM (inactive)	> 100 µM (inactive)	52.5 µM (inactive)	> 100 µM (inactive)	> 100 µM (inactive)	55.7 µM (inactive)	60.3 µM (inactive)	46.5 µM (inactive)	21.6 µM (inactive)	85.3 µM (inactive)	95.1 µM (inactive)	> 100 µM (inactive)	> 100 µM (inactive)	33.6 µM (inactive)	82.8 µM (inactive)	54.8 µM (inactive)	
Cc1nn2c3c(nnc2c1C#N)C(=O)NN=C(N)S3	> 100 µM (inactive)	> 100 µM (inactive)	> 100 µM (inactive)		> 100 µM (inactive)	> 100 µM (inactive)	> 100 µM (inactive)	> 100 µM (inactive)			> 100 µM (inactive)	> 100 µM (inactive)	> 100 µM (inactive)	> 100 µM (inactive)		> 100 µM (inactive)		> 100 µM (inactive)		> 100 µM (inactive)
CN(C)/C=C/c1c2c(nc3ccccc13)C(=O)c1ccccc1C2=O	0.222 µM (active)	2.06 µM (inactive)	1.54 µM (inactive)	1.71 µM (inactive)	1.62 µM (inactive)	0.194 µM (active)	1.82 µM (inactive)	1.92 µM (inactive)	1.04 µM (active)	0.598 µM (active)	1.16 µM (inactive)	0.366 µM (active)	3.91 µM (inactive)	1.92 µM (inactive)	0.752 µM (active)	2.33 µM (inactive)	1.12 µM (active)	0.266 µM (active)	1.38 µM (inactive)	
CN(C)CCCn1c2ccccc2c2cnccc21	48.9 µM (inactive)	38.7 µM (inactive)	25.1 µM (inactive)	36.1 µM (inactive)	26.4 µM (inactive)	39.5 µM (inactive)	17.5 µM (inactive)	20.6 µM (inactive)	42.7 µM (inactive)	33.8 µM (inactive)	23.8 µM (inactive)	23.6 µM (inactive)	66.2 µM (inactive)	27.7 µM (inactive)	32.3 µM (inactive)	33.6 µM (inactive)	45.5 µM (inactive)	60.4 µM (inactive)	43.9 µM (inactive)	
c1ccc2c3c([nH]c2c1)C1(CCCCC1)c1c([nH]c2ccccc12)C31CCCCC1	37.1 µM (inactive)	38.6 µM (inactive)	> 100 µM (inactive)		> 100 µM (inactive)	31 µM (inactive)	29 µM (inactive)			17.5 µM (inactive)	30 µM (inactive)	> 100 µM (inactive)	18.2 µM (inactive)	15.1 µM (inactive)		39.3 µM (inactive)	18.8 µM (inactive)	19.5 µM (inactive)		46 µM (inactive)
O=C(CSc1nnc(-c2ccc(/N=C\c3ccc(Cl)cc3)cc2)o1)Nc1ccccc1[N+](=O)[O-]	> 100 µM (inactive)		> 100 µM (inactive)		> 100 µM (inactive)	> 100 µM (inactive)	> 100 µM (inactive)			> 100 µM (inactive)	> 100 µM (inactive)	> 100 µM (inactive)	> 100 µM (inactive)	> 100 µM (inactive)		> 100 µM (inactive)	> 100 µM (inactive)	> 100 µM (inactive)		> 100 µM (inactive)
COc1cc(C(=O)NC(CCN)(c2ccccc2)c2ccccc2)cc(OC)c1OC	13.8 µM (inactive)	35.4 µM (inactive)	16.8 µM (inactive)	42.7 µM (inactive)	29.6 µM (inactive)	26.3 µM (inactive)	20.9 µM (inactive)	> 65.2 µM (inactive)	> 56.2 µM (inactive)	24.8 µM (inactive)	16.6 µM (inactive)	12.2 µM (inactive)	> 31.6 µM (inactive)	22.9 µM (inactive)	> 100 µM (inactive)	21.3 µM (inactive)	63.2 µM (inactive)	> 31.6 µM (inactive)	> 31.6 µM (inactive)	
Cc1nc2ccccc2c(=O)[nH]1	> 100 µM (inactive)		> 100 µM (inactive)		> 100 µM (inactive)	> 100 µM (inactive)	> 100 µM (inactive)	> 100 µM (inactive)		> 100 µM (inactive)	> 100 µM (inactive)	> 100 µM (inactive)	> 100 µM (inactive)	> 100 µM (inactive)		> 100 µM (inactive)	> 100 µM (inactive)	> 100 µM (inactive)		> 100 µM (inactive)
CN1CCN(c2c(Cl)cc(Cl)c3[nH]c4ccccc4c(=O)c23)CC1	13.1 µM (inactive)	5.68 µM (inactive)	3.22 µM (inactive)	7.35 µM (inactive)	3.82 µM (inactive)	8.87 µM (inactive)	4.29 µM (inactive)	3.94 µM (inactive)	4.8 µM (inactive)	2.9 µM (inactive)	2.77 µM (inactive)	2.28 µM (inactive)	11.1 µM (inactive)	5.75 µM (inactive)	6.38 µM (inactive)	5.56 µM (inactive)	12.2 µM (inactive)	6.15 µM (inactive)	5.4 µM (inactive)	
